This passage reports IC50 results from patent US20240228506A1, “RIPK1 INHIBITORS AND METHODS OF USE” (Merck Sharp & Dohme LLC, priority 2021, published 2024).

The experiment concerns the target T1, GST-RIPK1 (recombinant GST-RIPK1 kinase domain (residues 1-327)) (Homo sapiens, UniProt Q13546).
T1 construct: recombinant GST-RIPK1 kinase domain (residues 1-327) enzyme; made in house; host or cells: baculovirus-transfected Sf21 insect cells
T1 sequence (Q13546 1-327): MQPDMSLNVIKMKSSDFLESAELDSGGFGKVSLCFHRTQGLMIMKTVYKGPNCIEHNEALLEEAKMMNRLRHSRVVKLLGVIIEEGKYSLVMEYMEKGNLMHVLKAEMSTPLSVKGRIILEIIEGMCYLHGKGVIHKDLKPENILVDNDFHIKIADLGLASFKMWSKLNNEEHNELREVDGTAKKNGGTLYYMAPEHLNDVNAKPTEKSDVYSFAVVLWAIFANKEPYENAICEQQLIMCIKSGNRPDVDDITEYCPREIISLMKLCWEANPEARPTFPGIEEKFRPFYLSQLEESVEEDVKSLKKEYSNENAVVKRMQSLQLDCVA
The experiment can be described thus: RIPK1-ADP-Glo enzymatic assay. The class given is biochemical. The note with it: 25 nM GST-RIPK1, 300 μM ATP, 3 μM dephosphorylated-MBP; 30 minutes pre-incubation, 150 minutes reaction; ten-point titration. The method in brief: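 Ten-point 1:3 titrations from 100000 nM, 1% DMSO, were preincubated 30 min with 25 nM GST-RIPK1 (1-327) before starting with 300 μM ATP plus 3 μM dephosphorylated MBP; 150 min reaction. ADP-Glo luminescence measured ATP-to-ADP conversion; EC50 by four-parameter sigmoidal regression.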
`O=C(N1C[C@@H]2C[C@H]1c1cncc(C#Cc3ccccc3)c1O2)C12CCC(C(F)(F)F)(CC1)C2` [Compound 2-64, ((2S,5S)-9-(phenylethynyl)-2,3-dihydro-2,5-methanopyrido[3,4-f][1,4]oxazepin-4(5H)-yl)(4-(trifluoromethyl)bicyclo [2.2.1]heptan-1-yl)methanone]: the half-maximal inhibitory concentration (IC50) is 16 nM.

As to `COc1ccc(C#Cc2cncc3c2O[C@H]2C[C@@H]3N(C(=O)C34CCC(C(F)(F)F)(CC3)C4)C2)cc1` [Compound 2-65, ((2S,5S)-9-((4-methoxyphenyl)ethynyl)-2,3-dihydro-2,5-methanopyrido[3,4-f][1,4]oxazepin-4(5H)-yl)(4-(trifluoromethyl)bicyclo [2.2.1]heptan-1-yl)methanone], the IC50 is 18 nM.

Take `COc1cccc(C#Cc2cncc3c2O[C@H]2C[C@@H]3N(C(=O)C34CCC(C(F)(F)F)(CC3)C4)C2)c1` [Compound 2-66, ((2S,5S)-9-((3-methoxyphenyl)ethynyl)-2,3-dihydro-2,5-methanopyrido[3,4-f][1,4]oxazepin-4(5H)-yl)(4-(trifluoromethyl)bicyclo [2.2.1]heptan-1-yl)methanone]: the IC50 was found to be 18 nM. Take `O=C(N1C[C@@H]2C[C@H]1c1cncc(C#Cc3ccncn3)c1O2)C12CCC(C(F)(F)F)(CC1)C2` [Compound 2-67, ((2S,5S)-9-(pyrimidin-4-ylethynyl)-2,3-dihydro-2,5-methanopyrido[3,4-f][1,4]oxazepin-4(5H)-yl)(4-(trifluoromethyl)bicyclo [2.2.1]heptan-1-yl)methanone]: the IC50 turned out to be 32 nM.

Take `O=C(N1C[C@@H]2C[C@H]1c1cncc(C#Cc3ncccn3)c1O2)C12CCC(C(F)(F)F)(CC1)C2` [Compound 2-68, ((2S,5S)-9-(pyrimidin-2-ylethynyl)-2,3-dihydro-2,5-methanopyrido[3,4-f][1,4]oxazepin-4(5H)-yl)(4-(trifluoromethyl)bicyclo [2.2.1]heptan-1-yl)methanone]: the IC50 came to 134 nM. The same measure for `COc1ccnc(C#Cc2cncc3c2O[C@H]2C[C@@H]3N(C(=O)C34CCC(C(F)(F)F)(CC3)C4)C2)c1` [Compound 2-69, ((2S,5S)-9-((4-methoxypyridin-2-yl)ethynyl)-2,3-dihydro-2,5-methanopyrido[3,4-f][1,4]oxazepin-4(5H)-yl)(4-(trifluoromethyl)bicyclo [2.2.1]heptan-1-yl)methanone]: 41 nM; for `COc1ccccc1C#Cc1cncc2c1O[C@H]1C[C@@H]2N(C(=O)C23CCC(C(F)(F)F)(CC2)C3)C1` [Compound 2-70, ((2S,5S)-9-((2-methoxyphenyl)ethynyl)-2,3-dihydro-2,5-methanopyrido[3,4-f][1,4]oxazepin-4(5H)-yl)(4-(trifluoromethyl)bicyclo [2.2.1]heptan-1-yl)methanone]: 72 nM; for `Cc1nnc(C#Cc2cncc3c2O[C@H]2C[C@@H]3N(C(=O)C(C)(C)C(F)F)C2)o1` [Compound 2-71, 3,3-Difluoro-2,2-dimethyl-1-((2S,5S)-9-((5-methyl-1,3,4-oxadiazol-2-yl)ethynyl)-2,3-dihydro-2,5-methanopyrido[3,4-f][1,4]oxazepin-4(5H)-yl)propan-1-one]: 89 nM. Then `CC(C)(C(=O)N1C[C@@H]2C[C@H]1c1cncc(C#Cc3ncco3)c1O2)C(F)F` [Compound 2-72], with 68 nM.

Regarding `CC(C)(C)c1ncc(C#Cc2cncc3c2O[C@H]2C[C@@H]3N(C(=O)C(C)(C)C(F)F)C2)cn1` [Compound 2-73, 1-((2S,5S)-9-((2-(tert-butyl)pyrimidin-5-yl)ethynyl)-2,3-dihydro-2,5-methanopyrido[3,4-f][1,4]oxazepin-4(5H)-yl)-3,3-difluoro-2,2-dimethylpropan-1-one], the IC50 amounted to 19 nM. As for `CC(C)Oc1ncc(C#Cc2cncc3c2O[C@H]2C[C@@H]3N(C(=O)C(C)(C)C(F)F)C2)cn1` [Compound 2-74, 3,3-difluoro-1-((2S,5S)-9-((2-isopropoxypyrimidin-5-yl)ethynyl)-2,3-dihydro-2,5-methanopyrido[3,4-f][1,4]oxazepin-4(5H)-yl)-2,2-dimethylpropan-1-one], the IC50 worked out at 18 nM.
